Measured values reported in patent US5660976A, “Method for preserving a liver by perfusion with or storage in a solution containing ascorbyl tocopheryl phosphodiester” (Senju Pharmaceutical Co., Ltd., priority 1994, dated 1997).

Experiment: Acute toxicity (LD50) in rats
Settings: rat, in vivo
Method: The compound for use as the active ingredient in the hepatic graft preservative composition and hepatic graft preserving method of this invention is a very safe substance with an extremely low toxic potential and, as such, can be used with advantage for the purposes of this invention. [e.g. the LD50 values of L-ascorbyl DL-α-tocopheryl phosphate potassium (hereinafter referred to briefly as EPC-K)≥5 g/kg p.o. (rats) and≥100 mg/kg i.v. (rats)].

Cc1c(C)c2c(c(C)c1OP(=O)(O)OC1=C(O)[C@@H]([C@@H](O)CO)OC1=O)CCC(C)(CCCC(C)CCCC(C)CCCC(C)C)O2 (mixture of isomers) [EPC-K, L-Ascorbyl DL-α-tocopheryl phosphate potassium]
LD50 (iv, i.v. (rats)): ≥ 100 mg/kg
LD50 (po, p.o. (rats)): ≥ 5000 mg/kg
